The values that follow are results of earlier work, collected in patent publication US9199951B2, “Process for the manufacture of a 1,2-epoxide” (Hexion Inc., priority 2008, dated 2015).

Converted amounts (≈) assume the structure as drawn.

For the data set the following is noted: grams per liter water at 20° C.; for Solubility in water: terminal olefins of Table 2.

As to `C=CCCCCCC` [1-octene], the Solubility in water is 0.27 µg/mL (≈ 2.41 µM).
In the case of `C=CCOC(C)=O` [Allyl acetate], the solubility entry is on record as “about 10 g/L” and the Solubility in water is approximately 10000 µg/mL.
Turning to `C=CCO` [Allyl alcohol], the Solubility in water result is “miscible”.
As to `C=CCCl` [Allyl chloride], the solubility is 3600 µg/mL and the Solubility in water is 3600 µg/mL.
With `C=CCBr` [allyl bromide], the solubility is 4000 µg/mL.

What is called solubility is the dissolved amount per volume that the medium holds.
